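Grown in 96-well plates, cells were treated for 48 hours with each compound at five concentrations. Insufficient inhibition: endpoint recorded as highest concentration tested. GI50 is the concentration that inhibits growth by half. TGI denotes the concentration required for complete inhibition of growth.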

Some test systems named below: MDA-N; DMS 273 small cell lung; XF 498 CNS; LXFL 529 NSCLC; HOP-18 NSCLC; M19-MEL melanoma; RXF-631 renal; SN12K1 renal; P388 leukemia; P388/ADR leukemia.
Holding throughout (assay): NCI tumour cell line growth inhibition, 48 h

Consider `O=C(O)c1ccccc1NCn1c(=S)sc2ccccc21`, for which the TGI in the test with MDA-N is more than 100 µM.

For the compound `N#CCc1cccc(CC#N)c1Br`, the TGI in the test on DMS 273 small cell lung, in the test on XF 498 CNS and with LXFL 529 NSCLC was more than 100 µM in each case.

For `C=C1CC[C@H]2C(C)=CC[C@H]3C(=C)C(=O)O[C@@H]3[C@@H]12`, in the test with MDA-N, the TGI was more than 100 µM.

`OCCN(CO)CO`: in the test with MDA-N, the TGI was more than 100 µM.

Regarding `COc1ccccc1NC(=O)C1=C(C)NC(C)=C(C(=O)Nc2ccccc2OC)C1c1ccco1`, the TGI was more than 100 µM in the test with DMS 273 small cell lung; more than 100 µM in the test with XF 498 CNS; more than 100 µM in the test with LXFL 529 NSCLC; more than 100 µM with MDA-N; 73.9 µM in the test on HOP-18 NSCLC; more than 100 µM in the test with M19-MEL melanoma. Besides, the TGI with RXF-631 renal was more than 92.6 µM.

`CC1(C)OC(=O)C(=C2CCC(C(=O)Nc3cccc(C(F)(F)F)c3)N2)C(=O)O1` (stereo not given): the TGI with DMS 273 small cell lung is more than 100 µM; with XF 498 CNS, 89.8 µM; with LXFL 529 NSCLC, more than 100 µM; in the test on HOP-18 NSCLC, more than 100 µM; with M19-MEL melanoma, more than 100 µM.

`O=c1[nH]cnc2n[nH]nc12`: the TGI in the test on DMS 273 small cell lung is more than 100 µM; in the test with XF 498 CNS, 83.5 µM; in the test on LXFL 529 NSCLC, more than 100 µM; in the test with HOP-18 NSCLC it was more than 100 µM; in the test on M19-MEL melanoma it was more than 79.9 µM.

On to `COc1cc2c(c(OC)c1OC)C(=O)NCCC2`, for which the TGI in the test on DMS 273 small cell lung, with SN12K1 renal, in the test on XF 498 CNS, with P388 leukemia, with LXFL 529 NSCLC and with P388/ADR leukemia was more than 100 µM in each case. The TGI in the test with HOP-18 NSCLC and in the test with M19-MEL melanoma was more than 100 µM throughout.

With `CN(C)CCN1CCc2c([nH]c3ccccc23)C1c1cccnc1` (stereo not given), the TGI in the test with DMS 273 small cell lung, in the test on HOP-18 NSCLC and with M19-MEL melanoma was more than 100 µM throughout.

Turning to `COc1ccc(/C=C\c2cc(OC)c(OC)c(OC)c2)cc1`, the TGI in the test on DMS 273 small cell lung, in the test with LXFL 529 NSCLC, in the test with M19-MEL melanoma and in the test on RXF-631 renal was more than 100 µM each time.

Turning to `COc1ccc(/C=N/NS(=O)(=O)c2ccccc2)cc1`, the TGI in the test with DMS 273 small cell lung, with XF 498 CNS, in the test on LXFL 529 NSCLC, with HOP-18 NSCLC and in the test with M19-MEL melanoma was more than 100 µM each time.

In the case of `Cc1ccc(S(=O)C(C)C(Cl)c2ccccc2)cc1` (stereo not given), the TGI in the test with DMS 273 small cell lung, in the test with LXFL 529 NSCLC, in the test on HOP-18 NSCLC and in the test with M19-MEL melanoma was more than 100 µM throughout.

As for `Cn1c(=O)c2c(nc(N/N=C/c3ccccc3C(=O)O)n2C)n(C)c1=O`, the TGI in the test with MDA-N was more than 100 µM.

For the compound `CCCCC1(C(NC(=O)c2ccccc2Cl)c2ccncc2)C(=O)N(c2ccccc2)N(c2ccccc2)C1=O` (stereo not given), the TGI with DMS 273 small cell lung, in the test on XF 498 CNS, in the test with LXFL 529 NSCLC, in the test with HOP-18 NSCLC and in the test on M19-MEL melanoma was more than 100 µM throughout.

Regarding `Cc1cc(Cl)ccc1NC(=O)C1C(=O)N(c2ccc(Cl)cc2C)C(=O)/C1=N\NC(N)=S` (stereo not given), the TGI with DMS 273 small cell lung is more than 100 µM; with LXFL 529 NSCLC, 98.5 µM; in the test with HOP-18 NSCLC, 60.8 µM; with M19-MEL melanoma, more than 100 µM; in the test with RXF-631 renal it was more than 100 µM.

Regarding `O=NNc1ccc(S(=O)(=O)c2ccc3ccccc3c2)cn1`, the TGI in the test with MDA-N is more than 100 µM.

Turning to `CC(=O)OCC1OC(n2c3c(cc(C#N)c2=S)CCCC3)C(OC(C)=O)C(OC(C)=O)C1OC(C)=O` (stereo not given), the TGI in the test with MDA-N is more than 100 µM.

With `Nc1ncc2ncn(C3CCC(CO)O3)c2n1` (stereo not given), the TGI with MDA-N was more than 100 µM.

In the case of `Cc1cc(C)nc(NS(=O)(=O)c2ccc(Nc3c4ccccc4nc4c(C(=O)NCCN(C)C)cccc34)cc2)n1`, the TGI in the test with DMS 273 small cell lung is 11.2 µM; in the test on XF 498 CNS it was 26.8 µM; with LXFL 529 NSCLC it was 20 µM; in the test with M19-MEL melanoma, 14.9 µM; with RXF-631 renal, 18 µM.

For the compound `COc1cc2c3cc1Oc1c(OC)c(OC)cc4c1C(Cc1ccc(O)c(c1)Oc1ccc(cc1)CC3N(C)CC2)N(C)CC4` (stereo not given), the TGI in the test with MDA-N stood at 60 µM.

`O=C1OC(=O)C([Se]c2ccccc2)=C1[Se]c1ccccc1`: the TGI in the test on LXFL 529 NSCLC, in the test on HOP-18 NSCLC and in the test on RXF-631 renal was more than 100 µM each time.

Turning to `NC1=NCN(C2OC(CO)C(O)C2O)C(=O)N1` (stereo not given), the TGI with DMS 273 small cell lung amounted to 620 µM; in the test with SN12K1 renal, 619 µM; in the test on XF 498 CNS it was 197 µM; in the test with P388 leukemia it was 229 µM; in the test on MDA-N it was 381 µM; with P388/ADR leukemia it was 196 µM. Also, the TGI was 1060 µM in the test with HOP-18 NSCLC and 1760 µM in the test with M19-MEL melanoma.

`O=C1C(=O)C2(CC1S(=O)(=O)c1ccccc1)c1ccccc1-c1ccccc12` (stereo not given): the TGI in the test on DMS 273 small cell lung is 36.2 µM; with LXFL 529 NSCLC it was 31 µM; in the test on HOP-18 NSCLC, more than 10 µM.

For `Cc1ccc(OC(=O)N2C/C(=C\c3ccccc3)C(=O)/C(=C/c3ccccc3)C2)cc1`, the TGI in the test on DMS 273 small cell lung was 18.1 µM; with XF 498 CNS it was 49.1 µM; in the test on LXFL 529 NSCLC, 30.6 µM; in the test with MDA-N, 15.3 µM; in the test with HOP-18 NSCLC it was more than 91.2 µM; in the test with M19-MEL melanoma, 18.9 µM. For the same compound, in the test on RXF-631 renal, the TGI is more than 100 µM.

For `O=C(/C=C/c1ccccc1O)c1ccccc1Cl`, the TGI in the test on DMS 273 small cell lung, in the test with XF 498 CNS, with LXFL 529 NSCLC, with HOP-18 NSCLC, with M19-MEL melanoma and in the test with RXF-631 renal was more than 100 µM throughout.

Consider `Cc1nc2ccccc2c(=O)n1/N=C(\N=Nc1cc(Cl)ccc1Cl)c1ccccc1`, for which the TGI with DMS 273 small cell lung was more than 100 µM; in the test on XF 498 CNS, more than 100 µM; in the test with LXFL 529 NSCLC it was more than 100 µM; in the test with HOP-18 NSCLC, 44.9 µM; in the test with M19-MEL melanoma, more than 100 µM.

`COc1ccc(Br)c(C(=O)N2CCc3ccccc32)c1N`: the TGI in the test on DMS 273 small cell lung was 99.3 µM; in the test on XF 498 CNS, more than 100 µM; in the test on LXFL 529 NSCLC, more than 100 µM; in the test with HOP-18 NSCLC it was more than 100 µM; in the test with M19-MEL melanoma, more than 100 µM.

`C1=CC2CCC1CN2CCC1CNc2ccccc21` (stereo not given): the TGI in the test with DMS 273 small cell lung, with XF 498 CNS, with LXFL 529 NSCLC, with HOP-18 NSCLC and in the test on M19-MEL melanoma was more than 100 µM in each case.

As to `COc1cc(OC)c2c(=O)c3cccc([N+](=O)[O-])c3n(C)c2c1`, the TGI in the test with DMS 273 small cell lung, with XF 498 CNS, in the test with LXFL 529 NSCLC and in the test on RXF-631 renal was more than 100 µM throughout.

For the compound `COc1cccc(/C=N\NC(=O)C(C)SC(C)C(=O)N/N=C/c2cccc(OC)c2)c1` (stereo not given), the TGI in the test with DMS 273 small cell lung is 97 µM; with XF 498 CNS, more than 100 µM; in the test on LXFL 529 NSCLC, more than 100 µM; in the test on M19-MEL melanoma, more than 100 µM.

`CCN(c1ccccc1)[C@H]1C(=O)N(c2ccc([N+](=O)[O-])cc2)[C@H]1c1ccc(OC)cc1`: the TGI in the test on DMS 273 small cell lung, with LXFL 529 NSCLC, in the test on M19-MEL melanoma and with RXF-631 renal was more than 100 µM throughout.

With `Clc1ccc(CN2CCCN(Cc3ccc(Cl)cc3)C2c2cc3ccccc3c3ccccc23)cc1`, the TGI with MDA-N is more than 100 µM.

As to `NCCCN=c1ccc2c3c1c(O)c1c(O)ccc(=O)c1c3[nH]n2CCNCCO`, the TGI in the test on DMS 273 small cell lung was 0.403 µM; in the test on SN12K1 renal, 16.3 µM; in the test on XF 498 CNS, 6.05 µM; in the test on P388 leukemia it was 6.13 µM; in the test with MDA-N, 8.37 µM; in the test with P388/ADR leukemia, 100 µM. The TGI with HOP-18 NSCLC was 17.8 µM; with M19-MEL melanoma, more than 250 µM.

In turn, `COc1ccc(C)cc1NC(=S)C#N` yielded a TGI in the test on MDA-N of more than 100 µM.

As for `N#[N+]c1ccc(Nc2ccccc2)cc1`, in the test with MDA-N, the GI50 was more than 50 µg/mL and the TGI was more than 50 µg/mL.

`CCCCCC[C@H]1C(=O)O[C@H](C)[C@H](NC(=O)c2cccc(NC=O)c2OC)C(=O)O[C@@H](C)[C@@H]1OC(=O)CCC` (tested in a mixture with another compound): in the test with MDA-N, the GI50 was 11.1 µM and the TGI was 45.2 µM.

With `Cc1ccc2ccc(-c3ccccc3)c3c2c1C(=O)c1ccccc1C3=O`, the TGI in the test on DMS 273 small cell lung is more than 100 µM; in the test with XF 498 CNS, 99.1 µM; with LXFL 529 NSCLC it was more than 100 µM; in the test with HOP-18 NSCLC, more than 100 µM; with M19-MEL melanoma, more than 100 µM.

These data come from PubChem BioAssay (NCI).
